Measured values: publication PMC2410273, “Pharmacokinetic behaviour of the chemoprotectants BNP7787 and mesna after an i.v. bolus injection in rats” (British Journal of Cancer, 2004)
Like-named read-outs stand apart in the source and are kept apart here.

Tests used:
[1] = Pharmacokinetics and tissue distribution of BNP7787 and mesna after i.v. bolus of BNP7787 or mesna in WARD tumour-bearing rats; format: in vivo, Fischer rats; details: for AUC^5−60 in plasma, fold higher in rats than in nude mice: after equivalent dose of 1000 mg kg^−1 BNP7787, mouse data ref Boven et al, 2002; for AUC, fold lower than the corresponding value in kidney: all other sampled tissue compartments, after either BNP7787 or mesna; for Kp: 1000 mg/kg
Description: The protocol was approved by the ethics committee for animal experiments of the Vrije Universiteit medical center in Amsterdam, The Netherlands. This committee strictly adheres to the standards required by the UKCCCR for the welfare of animals in neoplasia ([Workman et al, 1998]). Female Fischer rats (144–171 g) were obtained from Harlan (Indianapolis, USA) and were implanted subcutaneously in both flanks with fragments (2–3 mm diameter) of the WARD colorectal tumour ([Cao et al, 1994]). The pharmacokinetic study started at the time the tumours had reached a mean size of approximately 600 mm^3 (range 250–900 mm^3).
Tumour-bearing rats were treated with 1000 mg kg^−1 BNP7787 i.v. or 1000 mg kg^−1 mesna i.v. injected in the tail vein. Approximately 5 min before sample collection, the rats were anaesthetised by i.p. injection with 0.1 ml of a mixture of 75 mg ml^−1 ketamine plus 5 mg ml^−1 xylazine per 100 g weight. Blood was obtained by heart puncture at 0, 5, 15, 30, 45, 60, 90 and 150 min after i.v. administration of BNP7787 or mesna. Thereafter, the kidney, liver and tumour were removed by surgical dissection. In addition, at time points 0 and 30 min, skeletal muscle attached to the thighbone was also collected. At each time point three rats were killed.
Immediately after collection, the blood samples, which were collected in cooled EDTA-containing tubes (potassium-EDTA 1.6 mg EDTA ml^−1 blood; Sarstedt, Germany), were centrifuged at 4°C for 10 min at 4000 g. Plasma was separated and immediately deproteinised by adding one volume of sulphuric acid (0.33 M) and one volume of sodium hexametaphosphate (5 g/100 ml). After vortexing and centrifugation for 2 min at 12 000 g, the supernatant was stored in aliquots at −80°C until analysis. One volume of RBCs was washed with 1 volume of cold phosphate-buffered saline (PBS) of pH 7.4 containing sodium phosphate (10 mM) and NaCl (140 mM; Hospital Pharmacy, VUmc, Amsterdam, The Netherlands). This mixture was centrifuged for 2 min, 12 000 g at 4°C. After removing the PBS, the remaining RBCs were stored in liquid nitrogen until further processing.
The kidney, liver, tumour and skeletal muscle were washed with cold PBS before storage in liquid nitrogen. After collection of all the samples at the different time points, tissue homogenates of kidney, liver, tumour and skeletal muscle were prepared by pulverisation using a Braun Micro-dismembrator (Salm and Kipp; Breukelen, The Netherlands) according to the method described by [Peters et al (1986)]. An appropriate volume of aqueous EDTA (1 g l^−1) was added to the RBC and tissue homogenates to obtain a concentration of 100 mg tissue (wet weight) per ml. After sonification (10 min) and vortexing (10 min), the samples were subsequently deproteinised by adding 1 volume of cold sulphuric acid (0.33 M) and 1 volume of cold sodium hexametaphosphate (5 g/100 ml). After thorough vortexing and centrifugation (2 min at 8500 g at 4°C), the supernatants were stored in aliquots at −80° until analysis.
BNP7787 and mesna concentrations were determined selectively in one run using micro-HPLC with a dual electrochemical detector (dual ECD) ([Verschraagen et al, 2003b]). Briefly, citrate-NaOH buffer (40 μl of a mixture of 1 ml 5.0 M sodium hydroxide and 4 ml 0.5 M tri-sodium citrate buffer, pH 3.0) was added to 200 μl of deproteinised plasma, RBC or tissue sample, and the sample was injected into the micro-HPLC system which consisted of a Phenomenex C18 guard column (10 μm, 4 × 2.0 mm) and a Phenomenex Prodigy C18 ODS-3 column (5 μm, 100 × 1.0 mm; Bester, Amstelveen, The Netherlands).

[2] = parameters: method as in Boven et al, 2002; details: nude mice; after BNP7787 administration; ref Boven et al, 2002; cited from earlier work
[3] = system: antitumour activity of cisplatin; parameters: method as in Hausheer et al, 1998; details: tumour-bearing rats; given preceding cisplatin; ref Hausheer et al, 1998; cited from earlier work
[4] = system: antitumour activity of cisplatin; parameters: method as in Boven et al, 2002; details: tumour-bearing nude mice; given preceding cisplatin; ref Boven et al, 2002; cited from earlier work
[5] = parameters: method as in Hausheer et al, 1998; details: dogs, ref Hausheer et al, 1998; cited from earlier work
[6] = parameters: method as in Hausheer et al, 1998; details: rats, ref Hausheer et al, 1998; cited from earlier work
[7] = system: cisplatin-induced nephrotoxicity; parameters: method as in Hausheer et al, 1998; details: rats, ref Hausheer et al, 1998, cited from earlier work
[8] = system: cisplatin-induced nephrotoxicity; parameters: method as in Hausheer et al, 1998; details: dogs; plasma creatinine, BUN, renal histopathology; ref Hausheer et al, 1998; cited from earlier work
[9] = parameters: method as in Verschraagen et al, in press; details: cancer patients, ref Verschraagen et al, in press, cited from earlier work
[10] = system: cisplatin-induced toxicity; parameters: method as in Boven et al, 2002; details: nude mice; in the presence of 1000 mg kg^−1 BNP7787; ref Boven et al, 2002; cited from earlier work
[11] = system: intestinal and renal epithelial cells; parameters: method as in earlier work; details: isolated cells, via facilitated transport, ref Ormstad and Uehara, 1982, Ormstad et al, 1983, Brock et al, 1984, Ormstad and Ohno; cited from earlier work
[12] = parameters: method as in Ormstad et al, 1983; details: in vitro, ref Ormstad et al, 1983, cited from earlier work
[13] = 30 min after 1000 mg kg^−1 BNP7787 i.v.
[14] = 30 min after 1000 mg kg^−1 mesna i.v.
[15] = RBC, each 1000 mg kg^−1 i.v., P<0.01
[16] = after 1000 mg kg^−1 BNP7787 i.v., RBC
[17] = after 1000 mg kg^−1 BNP7787 i.v., kidney
[18] = after 1000 mg kg^−1 BNP7787 i.v., liver
[19] = after 1000 mg kg^−1 BNP7787 i.v., plasma
[20] = after 1000 mg kg^−1 BNP7787 i.v., tumour
[21] = after 1000 mg kg^−1 mesna i.v., kidney
[22] = after 1000 mg kg^−1 mesna i.v., plasma
[23] = after 1000 mg kg^−1 mesna i.v., tumour
[24] = female, Fischer, rat, all tissue compartments other than kidney / plasma, iv, after 1000 mg kg^−1 mesna i.v., all tissue compartments other than kidney, read-out: tissue–plasma AUC ratio
[25] = female, Fischer, rat, kidney / plasma, iv, after 1000 mg kg^−1 BNP7787 i.v., read-out: kidney–plasma AUC ratio
[26] = female, Fischer, rat, kidney / plasma, iv, after 1000 mg kg^−1 mesna i.v., read-out: kidney–plasma AUC ratio
[27] = female, Fischer, rat, liver / plasma, iv, after 1000 mg kg^−1 BNP7787 i.v., read-out: liver–plasma AUC ratio
[28] = female, Fischer, rat, red blood cells / plasma, iv, after 1000 mg kg^−1 BNP7787 i.v., read-out: RBC–plasma AUC ratio
[29] = female, Fischer, rat, tumour / plasma, iv, after 1000 mg kg^−1 BNP7787 i.v., read-out: tumour–plasma AUC ratio
[30] = plasma, each 1000 mg kg^−1 i.v., P<0.01

O=S(=O)(O)CCS [mesna, sodium 2-mercapto ethane sulphonate]
mean concentration (±s.d.) in skeletal muscle [1, 13]: 355.1 ± 113.0 nmol/g
mean concentration (±s.d.) in skeletal muscle [1, 14]: 665.1 ± 209.1 nmol/g
AUC, fold lower after BNP7787 than after mesna administration [1, 15]: 6.2 fold
time detectable [1, 16]: up to 90 min
time detectable [1, 17]: at least 150 min
time detectable [1, 18]: up to 90 min
time detectable [1, 19]: up to 90 min
time detectable [1, 20]: at least 150 min
time detectable ([1]; after 1000 mg kg^−1 mesna i.v., RBC): at least 150 min
time detectable [1, 21]: at least 150 min
time detectable ([1]; after 1000 mg kg^−1 mesna i.v., liver): at least 150 min
time detectable [1, 22]: at least 150 min
AUC of mesna relative to AUC of BNP7787 ([1]; after 1000 mg kg^−1 mesna i.v., plasma and all tissues sampled): at least seven-fold higher
time detectable [1, 23]: at least 150 min
AUC^5−60 in plasma, fold higher in rats than in nude mice [1]: approximately 5.2 fold
AUC of mesna in tumour relative to AUC of mesna in plasma ([1]; after mesna administration): at least three-fold lower
AUC, fold lower than the corresponding value in kidney [1]: at least 5.5 fold
Kp [1, 24]: < 0.3
Tmax ([1]; female, Fischer, rat, iv, after 1000 mg kg^−1 BNP7787 i.v., liver, read-out: time of maximal concentration in liver (converted)): 5 min
Kp [1, 25]: 4.5
Kp [1, 26]: 1.7
Kp [1, 27]: 0.5
Kp [1, 28]: 0.1
Kp [1, 29]: 0.7
AUC, fold lower after BNP7787 than after mesna administration ([1]; kidney, each 1000 mg kg^−1 i.v., P<0.01): 1.9 fold
AUC after BNP7787 administration compared with after mesna administration ([1]; liver, each 1000 mg kg^−1 i.v.): similar
AUC after BNP7787 administration compared with after mesna administration [1, 30]: five-fold lower
AUC of mesna in plasma as % of the AUC of BNP7787 ([1]; rats, after BNP7787 administration): approximately 50%
AUC, fold lower after BNP7787 than after mesna administration ([1]; tumour, each 1000 mg kg^−1 i.v., not statistically significant): 2.1 fold
AUC of mesna in plasma as % of the AUC of BNP7787 [2]: approximately 24%
effect on antitumour activity of cisplatin [3]: can reduce the number of complete and partial tumour remissions
effect on antitumour activity of cisplatin [4]: reduce the specific growth delay

O=S(=O)([O-])CCSSCCS(=O)(=O)[O-].[Na+].[Na+] [BNP7787, disodium 2,2′-dithio-bis-ethane sulphonate]
mean concentration (±s.d.) in skeletal muscle [1, 13]: 36.9 ± 26.0 nmol/g
mean concentration (±s.d.) in skeletal muscle [1, 14]: 30.3 ± 17.6 nmol/g
AUC (printed: concentration) after BNP7787 administration compared with after mesna administration [1, 15]: six-fold lower
AUC of BNP7787, fold lower than AUC of mesna [1, 16]: 11.4 fold
time detectable [1, 16]: 30 min
time of highest concentrations / peak levels ([1]; after 1000 mg kg^−1 BNP7787 i.v., all compartments): 5 min
AUC of BNP7787, fold lower than AUC of mesna [1, 17]: 2.7 fold
time detectable [1, 17]: 90 min
AUC of BNP7787, fold lower than AUC of mesna [1, 18]: 39.8 fold
time detectable [1, 18]: 30 min
AUC of BNP7787 relative to AUC of mesna [1, 19]: almost two-fold higher
time detectable [1, 19]: 90 min
AUC of BNP7787, fold lower than AUC of mesna [1, 20]: 5.1 fold
time detectable [1, 20]: 45 min
time detectable [1, 21]: at least 150 min
time detectable [1, 22]: at least 150 min
time detectable [1, 23]: at least 150 min
AUC^5−60 in plasma, fold higher in rats than in nude mice [1]: 2.7 fold
AUC, fold lower than the corresponding value in kidney [1]: at least 5.5 fold
Kp [1, 24]: < 0.3
Kp [1, 25]: 0.9
Kp [1, 26]: 2.1
Kp [1, 27]: 0.01
Kp [1, 28]: 0.01
Kp [1, 29]: 0.08
AUC after BNP7787 administration compared with after mesna administration ([1]; kidney, each 1000 mg kg^−1 i.v.): smaller, but not significant difference
AUC after BNP7787 administration compared with after mesna administration ([1]; liver, each 1000 mg kg^−1 i.v.): not significantly different
AUC after BNP7787 administration compared with after mesna administration [1, 30]: more than three-fold higher
AUC after BNP7787 administration compared with after mesna administration ([1]; tumour, each 1000 mg kg^−1 i.v.): not significantly different
nontoxic dose after i.v. administration [5]: 2000 mg/kg
nontoxic dose after i.v. administration [6]: 4000 mg/kg
cisplatin dose (mg kg^−1) tolerated when preceded by BNP7787 ([7]; 750 or 1500 mg kg^−1 BNP7787 i.v.): could be safely increased from 6 to 9
protection against cisplatin-induced nephrotoxicity ([7]; plasma creatinine, BUN, renal histopathology): completely protected
protection against cisplatin-induced nephrotoxicity [8]: completely protected
effect on antitumour activity of cisplatin [3]: did not reduce the antitumour activity of cisplatin
effect on antitumour activity of cisplatin [4]: did not reduce the antitumour activity of cisplatin
pharmacokinetic interaction with intact cisplatin ([9]; BNP7787 18.4–41 g m^−2): no mutual pharmacokinetic interaction
relatively nontoxic dose ([9]; phase I, BNP7787 preceding cisplatin): ≤ 41 g m^−2
weight loss on cisplatin dose increase from 5 to 8 mg kg^−1 [10]: weight loss increased
cellular uptake [11]: preferentially taken up in intestinal and renal epithelial cells
reduction of BNP7787 into mesna ([12]; cytosol fraction of the kidney cortex): large reduction
reduction of BNP7787 into mesna ([12]; plasma): very limited
